pIC50: −log10 of the molar value.
Experiments:
[1] = target: T1, Interleukin-1 receptor-associated kinase 4 (Homo sapiens, UniProt Q9NWZ3); assay: Inhibition of IRAK4 (unknown origin) in presence of MBP as substrate by ADP-Glo assay
T1 sequence (Q9NWZ3 whole entry): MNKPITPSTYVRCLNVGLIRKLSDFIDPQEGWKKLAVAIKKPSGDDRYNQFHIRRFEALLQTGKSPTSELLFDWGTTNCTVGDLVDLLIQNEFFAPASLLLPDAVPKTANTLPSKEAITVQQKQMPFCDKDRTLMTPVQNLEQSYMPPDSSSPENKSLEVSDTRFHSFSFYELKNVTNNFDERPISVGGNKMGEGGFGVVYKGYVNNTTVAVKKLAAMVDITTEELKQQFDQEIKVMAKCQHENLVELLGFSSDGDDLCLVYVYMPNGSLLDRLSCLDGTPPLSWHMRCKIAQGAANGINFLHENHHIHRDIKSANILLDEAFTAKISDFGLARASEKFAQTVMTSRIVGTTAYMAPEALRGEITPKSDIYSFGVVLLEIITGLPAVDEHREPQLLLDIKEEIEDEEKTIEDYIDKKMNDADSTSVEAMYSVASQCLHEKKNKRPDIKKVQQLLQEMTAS

[2] = target: T2, Mitogen-activated protein kinase kinase kinase 7 (Homo sapiens, UniProt O43318); assay: Inhibition of TAK1 (unknown origin) in presence of MBP as substrate by ADP-Glo assay
T2 sequence (O43318 whole entry): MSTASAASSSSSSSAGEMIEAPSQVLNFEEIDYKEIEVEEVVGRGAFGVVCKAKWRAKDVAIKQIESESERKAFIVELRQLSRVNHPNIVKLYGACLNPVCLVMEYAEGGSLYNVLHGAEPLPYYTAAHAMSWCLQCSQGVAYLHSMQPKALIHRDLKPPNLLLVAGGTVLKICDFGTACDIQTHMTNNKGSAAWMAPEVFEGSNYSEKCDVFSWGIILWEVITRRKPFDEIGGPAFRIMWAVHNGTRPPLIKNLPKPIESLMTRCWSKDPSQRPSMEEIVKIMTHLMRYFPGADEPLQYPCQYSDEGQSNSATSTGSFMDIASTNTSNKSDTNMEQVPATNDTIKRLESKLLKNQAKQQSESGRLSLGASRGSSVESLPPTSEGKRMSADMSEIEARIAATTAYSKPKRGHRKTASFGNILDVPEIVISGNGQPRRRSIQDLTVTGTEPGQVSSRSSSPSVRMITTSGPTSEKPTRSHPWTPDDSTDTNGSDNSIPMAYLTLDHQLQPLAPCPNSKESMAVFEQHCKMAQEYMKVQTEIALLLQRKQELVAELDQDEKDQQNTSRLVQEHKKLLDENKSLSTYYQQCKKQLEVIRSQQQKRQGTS

THP-1 = assay: Antiinflammatory activity against human THP-1 cells assessed as inhibition of LPS induced IL-23 production preincubated with compound for 1 hr followed by LPS stimulation and measured after 18 hrs by cell based ELISA method; assay type: functional
[3] = Drug concentration in female BALB/c mouse plasma at 75 mg/kg, po incubated for 30 mins followed by IL-1beta administration and measured after 30 mins; assay type: ADME, organism-based; settings: time 60 min, read-out: Drug uptake
Blood = assay: Antiinflammatory activity against human whole blood assessed as inhibition of IL-1beta induced MIP-1beta production preincubated with compound for 1 hr followed by IL-1beta stimulation and measured after 12 hrs by cell based ELISA method; assay type: functional, tissue-based
HUVEC [4] = assay: Antiinflammatory activity against HUVEC cells assessed as inhibition of LPS induced IL-6 production measured by ELISA method; assay type: functional, cell-based; settings: Homo sapiens
HUVEC [5] = assay: Antiinflammatory activity against HUVEC cells assessed as inhibition of IL-1beta induced IL-6 production preincubated with compound for 1 hr followed by IL-1beta stimulation and measured after 12 hrs by cell based ELISA method; assay type: functional; settings: Homo sapiens
[6] = Antiinflammatory activity against human monocyte derived dendritic cells assessed as inhibition of LPS induced IL-23 production preincubated with compound for 1 hr followed by LPS stimulation and measured after 18 hrs by cell based ELISA method; assay type: functional
Mus musculus = assay: Antiinflammatory activity in female BALB/c mouse assessed as inhibition of IL-1beta induced IL-6 levels at 75 mg/kg, po for 30 mins followed by IL-1beta administration and measured after 1.5 hrs by ELISA method; assay type: functional; settings: time 2 hrs

| Compound | pIC50 [1] | pIC50 [2] | pIC50 (THP-1) | also measured |
| --- | --- | --- | --- | --- |
| NC(=O)[C@@H]1[C@H](Nc2nc(Nc3ccc(OCCN4CCCC4)cc3)ncc2-c2cccnc2)[C@H]2C=C[C@@H]1C2 | 6.99 | 6.42 | 6.15 | – |
| CN1CCN(c2cc(F)cc(Nc3ncc(-c4cccc(F)c4)c(N[C@H]4[C@@H](C(N)=O)[C@@H]5C=C[C@H]4C5)n3)c2)CC1 | 7.74 | 7.00 | 6.59 | – |
| NC(=O)[C@@H]1[C@H](Nc2nc(Nc3ccc(-c4cnco4)cc3)ncc2-c2cccc(F)c2)[C@H]2C=C[C@@H]1C2 | 7.43 | 6.41 | 6.54 | – |
| NC(=O)[C@@H]1[C@H](Nc2nc(Nc3cc(F)cc(N4CCOCC4)c3)ncc2-c2cccc(F)c2)[C@H]2C=C[C@@H]1C2 | 7.92 | 6.00 | 6.60 | – |
| NC(=O)[C@@H]1[C@H](Nc2nc(Nc3cccc(C(=O)N4CCCC4)c3)ncc2-c2cccnc2)[C@H]2C=C[C@@H]1C2 | – | – | 6.49 | – |
| NC(=O)[C@@H]1[C@H](Nc2nc(Nc3cccc(-c4cnco4)c3)ncc2-c2cccc(F)c2)[C@H]2C=C[C@@H]1C2 | 7.60 | 6.57 | 6.41 | – |
| NC(=O)[C@@H]1[C@H](Nc2nc(Nc3cccc(C(=O)N4CCCC4)c3)ncc2-c2cccc(F)c2)[C@H]2C=C[C@@H]1C2 | 8.40 | 7.62 | 6.06 | – |
| NC(=O)[C@@H]1[C@H](Nc2nc(Nc3cccc(C(=O)N4CCCC4)c3)ncc2-c2ccc(F)cc2)[C@H]2C=C[C@@H]1C2 | – | – | 6.34 | – |
| NC(=O)[C@@H]1[C@H](Nc2nc(Nc3ccnc(N4CCCC4)c3)ncc2-c2cccc(F)c2)[C@H]2C=C[C@@H]1C2 | 7.48 | 5.62 | 6.55 | – |
| NC(=O)[C@@H]1[C@H](Nc2nc(Nc3cccc(C(=O)N4CCCC4)c3)ncc2-c2cncc(F)c2)[C@H]2C=C[C@@H]1C2 | – | – | – | concentration at 1 h [3]: 2880 ng/mL |
| CN1CCN(c2ccc(Nc3ncc(-c4cccc(F)c4)c(N[C@H]4[C@@H](C(N)=O)[C@@H]5C=C[C@H]4C5)n3)cn2)CC1 | 7.59 | 6.55 | 6.62 | – |
| N#Cc1cccc(-c2cnc(Nc3cccc(C(=O)N4CCCC4)c3)nc2N[C@H]2[C@@H](C(N)=O)[C@@H]3C=C[C@H]2C3)c1 | – | 7.00 | 6.55 | – |
| NC(=O)[C@@H]1[C@H](Nc2nc(Nc3cccc(C(=O)N4CCCC4)c3)ncc2-c2ccncc2)[C@H]2C=C[C@@H]1C2 | 8.00 | 6.64 | 6.49 | – |
| NC(=O)[C@@H]1[C@H](Nc2nc(Nc3ccc(C(=O)N4CCCC4)cc3)ncc2-c2cccnc2)[C@H]2C=C[C@@H]1C2 | 7.59 | 6.60 | 6.64 | – |
| Cc1cc(Nc2ncc(-c3cccnc3)c(N[C@H]3[C@@H](C(N)=O)[C@@H]4C=C[C@H]3C4)n2)ccc1OCCN1CCCC1 | 6.75 | 6.35 | 5.96 | – |

The remaining compounds from weak to strong by pIC50 (THP-1), led by results:

| pIC50 [1] | pIC50 [2] | pIC50 (THP-1) | Compound | also measured |
| --- | --- | --- | --- | --- |
| – | 6.77 | 6.66 | NC(=O)[C@@H]1[C@H](Nc2nc(Nc3cccc(C(=O)N4CCCC4)c3)ncc2-c2ccccc2)[C@H]2C=C[C@@H]1C2 | – |
| 7.85 | 7.03 | 6.66 | NC(=O)[C@@H]1[C@H](Nc2nc(Nc3cccc(C(=O)N4CCOCC4)c3)ncc2-c2cccc(F)c2)[C@H]2C=C[C@@H]1C2 | – |
| 7.60 | 6.35 | 6.68 | NC(=O)[C@@H]1[C@H](Nc2nc(Nc3ccc(N4CCOCC4)nc3)ncc2-c2cccc(F)c2)[C@H]2C=C[C@@H]1C2 | – |
| – | – | 6.72 | N#Cc1ccc(-c2cnc(Nc3cccc(C(=O)N4CCCC4)c3)nc2N[C@H]2[C@@H](C(N)=O)[C@@H]3C=C[C@H]2C3)cc1 | – |
| 8.30 | 7.32 | 6.89 | CN1CCN(C(=O)c2cccc(Nc3ncc(-c4cccc(F)c4)c(N[C@H]4[C@@H](C(N)=O)[C@@H]5C=C[C@H]4C5)n3)c2)CC1 | – |
| 7.96 | – | 6.89 | NC(=O)[C@@H]1[C@H](Nc2nc(Nc3cccc(C(=O)N4CCCC4)c3)ncc2-c2ccccc2F)[C@H]2C=C[C@@H]1C2 | – |
| 8.30 | 7.57 | 6.96 | NC(=O)[C@@H]1[C@H](Nc2nc(Nc3cccc(C(=O)N4CCCC4)c3)ncc2-c2ccsc2)[C@H]2C=C[C@@H]1C2 | – |
| – | – | 7.00 | Cc1cnc(Nc2cccc(C(=O)N3CCCC3)c2)nc1N[C@H]1[C@@H](C(N)=O)[C@@H]2C=C[C@H]1C2 | – |
| – | – | 7.00 | NC(=O)[C@@H]1[C@H](Nc2nc(Nc3cccc(C(=O)N4CCCC4)c3)ncc2-c2ccnc(F)c2)[C@H]2C=C[C@@H]1C2 | pIC50 (Blood): 6.29; pIC50 (HUVEC [4]): 6.92; pIC50 (HUVEC [5]): 6.96; pIC50 [6]: 6.96; inhibition in vivo at 75 mg/kg (Mus musculus): 64%; concentration at 1 h [3]: 6820 ng/mL |
| – | – | 7.05 | NC(=O)[C@@H]1[C@H](Nc2nc(Nc3cccc(C(=O)N4CCCC4)c3)ncc2C2CC2)[C@H]2C=C[C@@H]1C2 | – |
| 8.22 | 6.92 | 7.30 | CN1CCN(c2cc(Nc3ncc(-c4cccc(F)c4)c(N[C@H]4[C@@H](C(N)=O)[C@@H]5C=C[C@H]4C5)n3)ccn2)CC1 | – |
| 8.10 | 6.80 | 7.40 | NC(=O)[C@@H]1[C@H](Nc2nc(Nc3ccnc(N4CCOCC4)c3)ncc2-c2cccc(F)c2)[C@H]2C=C[C@@H]1C2 | – |
| – | – | 7.40 | NC(=O)[C@@H]1[C@H](Nc2nc(Nc3cccc(C(=O)N4CCCC4)c3)ncc2-c2ccoc2)[C@H]2C=C[C@@H]1C2 | – |

— ChEMBL document CHEMBL5036378, “Discovery of 5-Aryl-2,4-diaminopyrimidine Compounds as Potent and Selective IRAK4 Inhibitors” (ACS Med Chem Lett, 2022)
